Assay results reported in patent publication US20240423915A1, “LIPIDS FOR USE IN LIPID NANOPARTICLES” (Acuitas Therapeutics, Inc., priority 2023, published 2024).

System: human IgG in mouse serum
Assay: Immunoglobulin G (IgG) mRNA in vivo evaluation using lipid nanoparticle compositions (human IgG ELISA of mouse serum)
Parameters: species or system CD-1/ICR mice
Settings: LNP with cationic lipid/DSPC/cholesterol/PEG lipid, tail vein injection, mouse serum 24 hours after administration; for Serum IgG (μg/mL) @ 0.3 mg/kg: IgG mRNA 0.3 mg mRNA/kg; for Serum IgG (μg/mL) @ 1.0 mg/kg: IgG mRNA 1.0 mg mRNA/kg
Method: A lipid of Formula (I), DSPC, cholesterol and PEG-lipid of Formula (II) are solubilized in ethanol at a molar ratio of 50:10:38.5:1.5 or 47.5:10:40.7:1.8. Lipid nanoparticles (LNP) are prepared at a total lipid to mRNA weight ratio of approximately 10:1 to 40:1. Briefly, the mRNA is diluted to 0.2 mg/mL in 10 to 50 mM citrate buffer, pH 4 to 6 or 10 to 25 mM acetate buffer, pH 4 to 6. Syringe pumps are used to mix the ethanolic lipid solution with the mRNA aqueous solution at a ratio of about 1:5 to 1:3 (vol/vol) with total flow rates above 15 mL/min. The ethanol is then removed, and the external buffer replaced with PBS by dialysis. Finally, the lipid nanoparticles are filtered through a 0.2 μm pore sterile filter.
Studies are performed in 6-8-week-old CD-1/ICR mice (Charles River or Inotiv) according to guidelines established by an institutional animal care committee (ACC) and the Canadian Council on Animal Care (CCAC). Varying doses of mRNA-lipid nanoparticle are systemically administered by tail vein injection and animals euthanized at a specific time point (e.g., 24 hours) post-administration. The whole blood is collected, and the serum subsequentially separated by centrifuging the tubes of the whole blood at 2000×g for 10 minutes at 4° C. and stored at −80° C. until use for analysis.
For immunoglobulin G (IgG) ELISA (Life Diagnostics Human IgG ELISA kit), the serum samples are diluted at 100 to 20,000 folds with 1× diluent solution. 100 μL of diluted serum is dispensed into anti-human IgG coated 96-well plate in duplicate alongside human IgG standards and incubated in a plate shaker at 150 rpm at 25° C. for 45 minutes. The wells are washed 5 times with 1× wash solution using a plate washer (400 μL/well). 100 μL of HRP conjugate is added into each well and incubated in a plate shaker at the same condition above. The wells are washed 5 times again with 1× wash solution using a plate washer (400 μL/well). 100 μL of TMB reagent is added into each well and incubated in a plate shaker at the same condition above. The reaction is stopped by adding 100 μL of Stop solution to each well. The absorbance is read at 450 nm (A450) with a microplate reader. The amount of human IgG in mouse serum is determined by plotting A450 values for the assay standard against human IgG concentration.
Representative compounds of the disclosure shown in Table 2 were formulated using the following molar ratio: 50% cationic lipid/10% distearoylphosphatidylcholine (DSPC)/38.5% Cholesterol/1.5% PEG lipid 2-[2-(ω-methoxy(polyethyleneglycol2000)ethoxy]-N,N-ditetradecylacetamide) or 47.5% cationic lipid/10% DSPC/40.7% Cholesterol/1.8% PEG lipid. Relative activity was determined by measuring the amount of human IgG in mouse serum as described in Example 1. The activity was compared at a dose of 1.0 or 0.3 mg mRNA/kg and expressed as ng luciferase/g liver measured 4 hours after administration, as described in Example 1 or as μg IgG/mL serum measured 24 hours after administration, as described in Example 2. Compound numbers in Table 2 refer to the compound numbers of Table 1.

Structure (SMILES): CCCCCCCCCCOC(=O)OCCCCCCCCN(CCCCCO)CCCCCCCC(=O)N(CCCCCCCCCC)CCCCCCCCCC [Compound I-1, decyl (8-((8-(didecylamino)-8-oxooctyl)(5-hydroxypentyl)amino)octyl) carbonate]
- Serum IgG (μg/mL) @ 0.3 mg/kg: 15.6 ± 5.1 µg/mL
- Serum IgG (μg/mL) @ 1.0 mg/kg: 121.5 ± 33.1 µg/mL

Structure (SMILES): CCCCCCCCCCOC(=O)OCCCCCCCCN(C)CCCCCCCC(=O)N(CCCCCCCCCC)CCCCCCCCCC [Compound I-2, decyl (8-((8-(didecylamino)-8-oxooctyl)(methyl)amino)octyl) carbonate]
- Serum IgG (μg/mL) @ 0.3 mg/kg: 22.3 ± 7.8 µg/mL
- Serum IgG (μg/mL) @ 1.0 mg/kg: 134.9 ± 26.6 µg/mL

Structure (SMILES): CCCCCCCCCCN(CCCCCCCCCC)C(=O)CCCCCCCN(CCCCCO)CCCCCCCCOC(=O)OC(CCCCCCC)CCCCCCC [Compound I-3, 8-((8-(didecylamino)-8-oxooctyl)(5-hydroxypentyl)amino)octylpentadecan-8-yl carbonate]
- Serum IgG (μg/mL) @ 0.3 mg/kg: 30.1 ± 2.1 µg/mL
- Serum IgG (μg/mL) @ 1.0 mg/kg: 173.3 ± 9.3 µg/mL

Structure (SMILES): CCCCCCCCCCN(CCCCCCCCCC)C(=O)CCCCCCCN(C)CCCCCCCCOC(=O)OC(CCCCCCC)CCCCCCC [Compound I-4, 8-((8-(didecylamino)-8-oxooctyl)(methyl)amino)octylpentadecan-8-yl carbonate]
- Serum IgG (μg/mL) @ 0.3 mg/kg: 8.5 ± 2.0 µg/mL
- Serum IgG (μg/mL) @ 1.0 mg/kg: 73.6 ± 15.6 µg/mL

Structure (SMILES): CCCCCCCCCCN(CCCCCCCCCC)C(=O)CCCCCCCCC(CCCCCCCCC(=O)OCC(CCCC)CCCCCC)N(CCCCCCCCCC)C(=O)CCN(C)C (stereo not shown) [Compound I-8, 2-butyloctyl 10-(N-decyl-3-(dimethylamino)propanamido)-19-(didecylamino)-19-oxononadecanoate]
- Serum IgG (μg/mL) @ 0.3 mg/kg: 21.7 ± 4.3 µg/mL
- Serum IgG (μg/mL) @ 1.0 mg/kg: 232.4 ± 42.5 µg/mL

Structure (SMILES): CCCCCCCCCCN(CCCCCCCCCC)C(=O)CCCCCCCN(CCCCCO)CCCCCCCCOC(=O)OCC(CC)CCCC (stereo not shown) [Compound I-11, 8-((8-(didecylamino)-8-oxooctyl)(5-hydroxypentyl)amino)octyl (2-ethylhexyl) carbonate]
- Serum IgG (μg/mL) @ 0.3 mg/kg: 39.6 ± 6.3 µg/mL

Structure (SMILES): CCCCCCCCCCN(CCCCCCCCCC)C(=O)CCCCCCCN(CCCCCO)CCCCCCCCOC(=O)OCC(CCCC)CCCCCC (stereo not shown) [Compound I-12, 2-butyloctyl (8-((8-(didecylamino)-8-oxooctyl)(5-hydroxypentyl)amino)octyl) carbonate]
- Serum IgG (μg/mL) @ 0.3 mg/kg: 19.7 ± 6.8 µg/mL

Structure (SMILES): CCCCCCCCCCC(CCCCCCCCCC)OC(=O)OCCCCCCCCCN(CCCCCO)CCCCCCCC(=O)N(CCCCCCCCCC)CCCCCCCCCC [Compound I-13, 9-((8-(didecylamino)-8-oxooctyl)(5-hydroxypentyl)amino)nonyl henicosan-11-yl carbonate]
- Serum IgG (μg/mL) @ 0.3 mg/kg: 18.2 ± 3.3 µg/mL
- Serum IgG (μg/mL) @ 1.0 mg/kg: 143.2 ± 23.9 µg/mL

Structure (SMILES): CCCCCCCCCCN(CCCCCCCCCC)C(=O)CCCCCCCN(CCCCCO)CCCCCCCCCOC(=O)OC(CCCC)CCCC [Compound I-14, 9-((8-(didecylamino)-8-oxooctyl)(5-hydroxypentyl)amino)nonyl nonan-5-yl carbonate]
- Serum IgG (μg/mL) @ 0.3 mg/kg: 37.0 ± 18.5 µg/mL
- Serum IgG (μg/mL) @ 1.0 mg/kg: 280.8 ± 86.6 µg/mL

Structure (SMILES): CCCCCCCCCCC(CCCCCCCCCC)OC(=O)OCCCCCN(CCCCCO)CCCCCCCC(=O)N(CCCCCCCCCC)CCCCCCCCCC [Compound I-15, 5-((8-(didecylamino)-8-oxooctyl)(5-hydroxypentyl)amino)pentyl henicosan-11-yl carbonate]
- Serum IgG (μg/mL) @ 0.3 mg/kg: 7.8 ± 4.0 µg/mL

Structure (SMILES): CCCCCCCCCCN(CCCCCCCCCC)C(=O)CCCCCCCN(CCCCCO)CCCCCOC(=O)OC(CCCC)CCCC [Compound I-16, 5-((8-(didecylamino)-8-oxooctyl)(5-hydroxypentyl)amino)pentyl nonan-5-yl carbonate]
- Serum IgG (μg/mL) @ 0.3 mg/kg: 18.5 ± 2.7 µg/mL
- Serum IgG (μg/mL) @ 1.0 mg/kg: 75.4 ± 53.7 µg/mL

Structure (SMILES): CCCCCCCCCCN(CCCCCCCCCC)C(=O)CCCCCCCN(CCCCCO)CCCCCCCCCOC(=O)OC(CCCCCC)CCCCCC [Compound I-17, 9-((8-(didecylamino)-8-oxooctyl)(5-hydroxypentyl)amino)nonyl tridecan-7-yl carbonate]
- Serum IgG (μg/mL) @ 0.3 mg/kg: 20.1 ± 6.7 µg/mL

Structure (SMILES): CCCCCCCCCCN(CCCCCCCCCC)C(=O)CCCCCCCN(CCCCCO)CCCCCCCOC(=O)OC(CCCCCCCC)CCCCCCCC [Compound I-18, 7-((8-(didecylamino)-8-oxooctyl)(5-hydroxypentyl)amino)heptyl heptadecan-9-yl carbonate]
- Serum IgG (μg/mL) @ 0.3 mg/kg: 51.5 ± 9.5 µg/mL
- Serum IgG (μg/mL) @ 1.0 mg/kg: 290.2 ± 50.5 µg/mL

Structure (SMILES): CCCCCCCCCCN(CCCCCCCCCC)C(=O)CCCCCCCN(CCCCCO)CCCCCCCCOC(=O)OCC(CCCCCC)CCCCCCCC (stereo not shown) [Compound I-19, 8-((8-(didecylamino)-8-oxooctyl)(5-hydroxypentyl)amino)octyl (2-hexyldecyl) carbonate]
- Serum IgG (μg/mL) @ 0.3 mg/kg: 25.1 ± 4.2 µg/mL
- Serum IgG (μg/mL) @ 1.0 mg/kg: 184.5 ± 40.2 µg/mL

Structure (SMILES): CCCCCCCCC(CCCCCCCC)OC(=O)OCCCCCCCN(CCCCCO)CCCCCCCCCC(=O)N(CCCCCCCC)CCCCCCCC [Compound I-20, 7-((10-(dioctylamino)-10-oxodecyl)(5-hydroxypentyl)amino)heptyl heptadecan-9-yl carbonate]
- Serum IgG (μg/mL) @ 0.3 mg/kg: 51.4 ± 12.8 µg/mL

Structure (SMILES): CCCCCCCCCCCCN(CCCCCCCCCCCC)C(=O)CCCCCN(CCCCCO)CCCCCCCOC(=O)OC(CCCCCCCC)CCCCCCCC [Compound I-21, 7-((6-(didodecylamino)-6-oxohexyl)(5-hydroxypentyl)amino)heptyl heptadecan-9-yl carbonate]
- Serum IgG (μg/mL) @ 0.3 mg/kg: 9.7 ± 3.3 µg/mL

Structure (SMILES): CCCCCCCCCCCCN(CCCCCCCCCCCC)C(=O)CCCCCCCN(CCCCCO)CCCCCCCOC(=O)OC(CCCCCCCC)CCCCCCCC [Compound I-22, 7-((8-(didodecylamino)-8-oxooctyl)(5-hydroxypentyl)amino)heptyl heptadecan-9-yl carbonate]
- Serum IgG (μg/mL) @ 0.3 mg/kg: 22.8 ± 11.0 µg/mL

Structure (SMILES): CCCCCCCCC(CCCCCCCC)OC(=O)OCCCCCCCN(CCCCCO)CCCCCCCC(=O)N(CCCCCCCC)CCCCCCCC [Compound I-23, 7-((8-(dioctylamino)-8-oxooctyl)(5-hydroxypentyl)amino)heptyl heptadecan-9-yl carbonate]
- Serum IgG (μg/mL) @ 0.3 mg/kg: 34.8 ± 12.3 µg/mL

Structure (SMILES): CCCCCCCCCCN(CCCCCCCCCC)C(=O)CCCCCCCCC(CCCCCCCCC(=O)OCC(CCCC)CCCCCC)N(CCCCCCCC)C(=O)CCCN1CCCC1 (stereo not shown) [Compound I-24, 2-butyloctyl 19-(didecylamino)-10-(n-octyl-4-(pyrrolidin-1-yl)butanamido)-19-oxononadecanoate]
- Serum IgG (μg/mL) @ 0.3 mg/kg: 25.1 ± 7.7 µg/mL

Structure (SMILES): CCCCCCCCCCN(CCCCCCCCCC)C(=O)CCCCCCCCC(CCCCCCCCC(=O)OCC(CCCC)CCCCCC)N(CCCCCCCCCC)C(=O)CCCN(C)C (stereo not shown) [Compound I-25, 2-butyloctyl 10-(n-decyl-4-(dimethylamino)butanamido)-19-(didecylamino)-19-oxononadecanoate]
- Serum IgG (μg/mL) @ 0.3 mg/kg: 9.3 ± 1.7 µg/mL
- Serum IgG (μg/mL) @ 1.0 mg/kg: 68.3 ± 13.4 µg/mL
